Assay results from the C3SDB collision cross section collection.

Conditions: [M+H-H2O]+; instrument: TW; calibrated with polyalanine and drug standards

Row | Compound | collision cross section (N2)
1 | CC1=CC(=O)[C@H]2C(C)(C)CCC[C@]2(C)[C@@]1(O)CCc1ccoc1 [SOLIDAGENONE] | 170.6 Å²
2 | CC1(C)CC[C@]2(C(=O)O)CC[C@]3(C)C(=CC[C@@H]4[C@@]5(C)CC[C@H](O)[C@@](C)(CO)[C@@H]5CC[C@]43C)[C@@H]2C1 [HEDERAGENIN] | 210.6 Å²

Same assay, conditions: [M+H]+; instrument: TW; calibrated with polyalanine and drug standards

Row | Compound | collision cross section (N2)
3 | COc1ccc([C@H]2Oc3cc(OC)cc(OC)c3C[C@H]2O)cc1 [EPIAFZELECHIN TRIMETHYL ETHER] | 170 Å²
4 | O=C(O)C1=C/C(=N/Nc2ccc(S(=O)(=O)Nc3ccccn3)cc2)C=CC1=O [SULFASALAZINE] | 200.4 Å²
5 | COc1cc2c3cc1Oc1cc(ccc1O)C[C@@H]1c4c(cc(OC)c(O)c4Oc4ccc(cc4)C[C@@H]3N(C)CC2)CC[N+]1(C)C [TUBOCURARINE CHLORIDE] | 236 Å²
6 | OC[C@H]1O[C@@H](n2cnc3c(NCc4ccco4)ncnc32)[C@H](O)[C@@H]1O [KINETIN RIBOSIDE] | 179 Å²
7 | CCCCN(CCCC)CCCOC(=O)c1ccc(N)cc1 [BUTACAINE] | 179 Å²
8 | O=C(O[C@@H]1Cc2c(O)cc(O)cc2O[C@@H]1c1cc(=O)c(O)c2c(O)c(O)cc([C@H]3Oc4cc(O)cc(O)c4C[C@H]3O)c2c1)c1cc(O)c(O)c(O)c1 [THEAFLAVIN MONOGALLATES] | 245.7 Å²
9 | CN=C(NC#N)NCCSCc1nc[nH]c1C [CIMETIDINE] | 155.7 Å²
10 | C[C@]12CC[C@@H](O)C[C@H]1CCc1ccccc12 [3alpha-HYDROXY-4,4-BISNOR-8,11,13-PODOCARPATRIENE] | 140.4 Å²
11 | Cc1cccc(Nc2ccccc2C(=O)O)c1C [MEFENAMIC ACID] | 153.3 Å²
12 | COC(=O)c1c(OC)cc2c(c1C)Oc1c(Cl)c(O)c(Cl)c(C)c1C(=O)O2 [GANGALEOIDIN] | 186.4 Å²
13 | O=C(CCCN1CCC(O)(c2ccc(Cl)cc2)CC1)c1ccc(F)cc1 [HALOPERIDOL] | 191.7 Å²
14 | C=C(C)[C@H]1CC=C(C(=O)O)CC1 [PERILLIC ACID (-)] | 124.9 Å²
15 | CC1(C)C(=O)C=C[C@@]2(C)C1CC(=O)[C@]1(C)C2CC[C@@]2(C)[C@H](c3ccoc3)OC(=O)[C@H]3O[C@]321 (stereo partly specified) [DEACETOXY-7-OXOGEDUNIN] | 196.6 Å²
16 | COc1ccc(C(C)=O)c(O)c1 [PAEONOL] | 124.9 Å²
17 | O=C(O)c1cccnc1Nc1cccc(C(F)(F)F)c1 [NIFLUMIC ACID] | 159.4 Å²
18 | CC(C)c1ccc2c(c1)CCC1C(C)(C(N)=O)CCCC21C (stereo unspecified) [DEHYDROABIETAMIDE] | 181.1 Å²
19 | CC(C)(C)NC(=O)[C@H]1CC[C@H]2[C@@H]3CC[C@H]4NC(=O)C=C[C@]4(C)[C@H]3CC[C@]12C [FINASTERIDE] | 200 Å²
20 | CC(=O)O[C@H]1CC[C@@]2(C)[C@H](CC[C@@H]3[C@@H]2CC[C@]2(C)[C@@H]4[C@H](C[C@@H]32)O[C@]2(CC[C@@H](C)CO2)[C@H]4C)C1 [SMILAGENIN ACETATE] | 222.1 Å²
21 | O=C(O)c1cc2cc(F)ccc2[nH]1 [5-FLUOROINDOLE-2-CARBOXYLIC ACID] | 145.3 Å²
22 | O=c1[nH]c2cc(Cl)c(Cl)cc2[nH]c1=O [2,3-DIHYDROXY-6,7-DICHLOROQUINOXALINE] | 143 Å²

Row | Compound | collision cross section (N2)
23 | Cc1nc2ccccn2c(=O)c1CCN1CCC(C(=O)c2ccc(F)cc2)CC1 [PIRENPERONE] | 196.8 Å²
24 | CC(=O)Oc1ccc(Cl)c2cccnc12 [CHLOROACETOXYQUINOLINE] | 141.1 Å²
25 | C=C[C@H]1CN2CC[C@H]1C[C@@H]2[C@@H](O)c1ccnc2ccccc12 [CINCHONINE] | 166.3 Å²
26 | CC(C)(C)c1ccc(C(O)CCCN2CCC(C(O)(c3ccccc3)c3ccccc3)CC2)cc1 (stereo unspecified) [TERFENADINE] | 226.8 Å²
27 | COC(=O)[C@H]1[C@H]2C[C@H]3c4[nH]c5ccccc5c4CCN3C[C@@H]2CC[C@@H]1O [CORYNANTHINE] | 186 Å²
28 | CCCCC1=NC2(CCCC2)C(=O)N1Cc1ccc(-c2ccccc2-c2nn[nH]n2)cc1 [IRBESARTAN] | 201.2 Å²
29 | COc1ccc(-c2coc3cc(O)cc(O)c3c2=O)cc1 [BIOCHANIN A] | 160.9 Å²
30 | NCCCC[C@H](N[C@@H](CCc1ccccc1)C(=O)O)C(=O)N1CCC[C@H]1C(=O)O [LISINOPRIL] | 189.7 Å²
31 | COc1cc(-c2coc3cc(O[C@@H]4O[C@H](CO)[C@@H](O)[C@H](O)[C@H]4O)c(OC)c(O)c3c2=O)cc(O)c1OC [IRIDIN] | 227.2 Å²
32 | CC(C)=CCc1c(O)cc2oc(C)cc(=O)c2c1O [PEUCENIN] | 154.2 Å²
33 | O=C1c2c(O)cccc2Cc2cccc(O)c21 [ANTHRALIN] | 142.6 Å²
34 | COC[C@]12CN(C=O)C3[C@@H]4[C@H](OC)C1[C@]3(C1CC3(O)C(OC)C(O)C4(OC(C)=O)C1C3OC(=O)c1ccccc1)[C@@H](OC)C[C@H]2O (stereo partly specified) [OXONITINE] | 236.2 Å²
35 | CC1(C)CC2C1CC[C@]1(CBr)CCC3C(CC(=O)O)C(=O)O[C@@]32C1 (stereo partly specified) [BROMO-3-HYDROXY-4-(SUCCIN-2-YL)-CARYOLANE gamma-LACTONE] | 183.4 Å²
36 | Nc1ccc(C(=O)NCC(=O)O)cc1 [AMINOHIPPURIC ACID] | 155.3 Å²
37 | O=C(Nc1ccccc1)c1ccccc1O [SALICYLANILIDE] | 143.9 Å²
38 | COc1ccc(C(=O)c2ccccc2)c(O)c1 [OXYBENZONE] | 146.5 Å²
39 | C[C@H]1O[C@@H](O[C@H]2[C@@H](O)C[C@H](O[C@H]3[C@@H](O)C[C@H](O[C@H]4CC[C@@]5(C)[C@H](CC[C@@H]6[C@@H]5C[C@@H](O)[C@]5(C)[C@@H](C7=CC(=O)OC7)CC[C@]65O)C4)O[C@@H]3C)O[C@@H]2C)C[C@H](O)[C@@H]1O [DIGOXIN] | 322.5 Å²
40 | CCOC(=O)COc1ccc2c(=O)cc(-c3ccccc3)oc2c1 [EFLOXATE] | 177.4 Å²
41 | Oc1ccc([C@H]2Oc3cc(O)cc(O)c3C[C@H]2O)cc1 [EPIAFZELECHIN (2R,3R)(-)] | 159.4 Å²
42 | O=c1c(O)c(-c2ccc(O)cc2O)oc2cc(O)cc(O)c12 [MORIN] | 162.7 Å²

Row | Compound | collision cross section (N2)
43 | CC[C@H](/C=C/[C@@H](C)[C@H]1CC[C@H]2[C@@H]3CCC4=CC(=O)CC[C@]4(C)[C@H]3CC[C@]12C)C(C)C [STIGMASTA-4,22-DIEN-3-ONE] | 218.5 Å²
44 | CN(C)CCCN1c2ccccc2Sc2ccc(Cl)cc21 [CHLORPROMAZINE] | 169.8 Å²
45 | O=c1cc(-c2ccccc2O)oc2cc(O)ccc12 [7,2'-DIHYDROXYFLAVONE] | 152.4 Å²
46 | N=c1nc(N2CCCCC2)cc(N)n1O [MINOXIDIL] | 146.1 Å²
47 | C=CCc1ccccc1OCC(O)CNC(C)C (stereo unspecified) [ALPRENOLOL] | 158.6 Å²
48 | CC(=O)Nc1c(I)c(NC(C)=O)c(I)c(C(=O)O)c1I [DIATRIZOIC ACID] | 176.3 Å²
49 | O=c1c(O)c(-c2ccc(O)c(O)c2)oc2cc(O)ccc12 [FISETIN] | 160.7 Å²
50 | Cc1cc(NS(=O)(=O)c2ccc(N)cc2)no1 [SULFAMETHOXAZOLE] | 151.4 Å²
51 | COc1cc2c(cc1OC)C(=O)OC2 [METAMECONINE] | 137.6 Å²
52 | CC(C)Oc1ccc2c(=O)c(-c3ccccc3)coc2c1 [IPRIFLAVONE] | 164.3 Å²
53 | CCc1cccc2c3c([nH]c12)C(CC)(CC(=O)O)OCC3 (stereo unspecified) [ETODOLAC] | 164.4 Å²
54 | CCCCC(=O)N(Cc1ccc(-c2ccccc2-c2nn[nH]n2)cc1)[C@H](C(=O)O)C(C)C [VALSARTAN] | 202 Å²
55 | CCCSc1ccc2nc(NC(=O)OC)[nH]c2c1 [ALBENDAZOLE] | 162 Å²
56 | CC(=O)Nc1ccc(OC(C)=O)cc1 [DIACETAMATE] | 143.1 Å²
57 | O=c1cc([C@H]2Oc3cc(O)cc(O)c3C[C@H]2O)cc2c([C@H]3Oc4cc(O)cc(O)c4C[C@H]3O)cc(O)c(O)c2c1O [THEAFLAVIN] | 219.8 Å²
58 | COC(=O)[C@]1(C)CC[C@]2(C)CC[C@]3(C)C4=CC=C5C(=CC(=O)C(O)=C5C)[C@]4(C)CC[C@@]3(C)[C@@H]2C1 [PRISTIMERIN] | 211.2 Å²
59 | Cc1cc(=O)n(-c2ccccc2)n1C [ANTIPYRINE] | 137.8 Å²
60 | COc1c(O)cc2c(c1O)[C@@H]1O[C@H](CO)[C@@H](O)[C@H](O)[C@H]1OC2=O [BERGENIN] | 168.3 Å²
61 | O=C(C1CCCCC1)N1CC(=O)N2CCc3ccccc3C2C1 (stereo unspecified) [PRAZIQUANTEL] | 176.5 Å²
62 | CC(C)NCC(O)c1cc(O)cc(O)c1 (stereo unspecified) [METAPROTERENOL] | 149.9 Å²

Same assay, conditions: [M+Na]+; instrument: TW; calibrated with polyalanine and drug standards

Row | Compound | collision cross section (N2)
63 | C[C@H]1[C@H](C)CC[C@]2(C(=O)O)CC[C@]3(C)C(=CC[C@@H]4[C@@]5(C)C[C@@H](O)[C@H](O)[C@@](C)(CO)[C@@H]5[C@H](O)C[C@]43C)[C@H]12 [MADECASSIC ACID] | 234.8 Å²
64 | CC1(C)C(C=C(Cl)Cl)C1C(=O)OC(C#N)c1cccc(Oc2ccccc2)c1 (stereo unspecified) [CYPERMETHRIN] | 200.6 Å²
65 | CCOC(=O)CC(SP(=S)(OC)OC)C(=O)OCC (stereo unspecified) [MALATHION] | 171.5 Å²
66 | CC[C@@]1([C@@H]2O[C@@H]([C@H]3O[C@@](O)(CO)[C@H](C)C[C@@H]3C)C[C@@H]2C)CC[C@H]([C@]2(C)CC[C@]3(C[C@H](O)[C@@H](C)[C@@H]([C@@H](C)[C@@H](OC)[C@H](C)C(=O)O)O3)O2)O1 [MONENSIN] | 245.1 Å²
